Like-named read-outs stand apart in the source and are kept apart here.
Experiments:
cathepsin G = molecular target: T1, cathepsin G (Homo sapiens, UniProt P08311); assay: Inactivation of cathepsin G; assay type: biochemical; parameters: percentage of inhibition: concentration or dose not given beside the values; details: for kinact/KI: read-out: kobs/[I]; for percentage of inhibition: after 5 min incubation
T1 construct: from tissue; host or cells: human leukocytes
T1 sequence (P08311 21-255): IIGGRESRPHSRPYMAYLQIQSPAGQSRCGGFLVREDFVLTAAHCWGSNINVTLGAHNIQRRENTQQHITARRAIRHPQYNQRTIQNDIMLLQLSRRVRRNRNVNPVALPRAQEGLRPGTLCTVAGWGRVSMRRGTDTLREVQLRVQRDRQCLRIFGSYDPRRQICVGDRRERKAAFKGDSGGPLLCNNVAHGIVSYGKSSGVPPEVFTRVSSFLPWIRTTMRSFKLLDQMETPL

[1] = molecular target: T2, porcine pancreatic elastase (PPE) (Sus scrofa, UniProt P00772); assay: Inactivation of porcine pancreatic elastase (PPE); assay type: biochemical; details: read-out: kobs/[I]
T2 construct: from tissue; host or cells: porcine pancreas (from the name)
T2 sequence (P00772 27-266): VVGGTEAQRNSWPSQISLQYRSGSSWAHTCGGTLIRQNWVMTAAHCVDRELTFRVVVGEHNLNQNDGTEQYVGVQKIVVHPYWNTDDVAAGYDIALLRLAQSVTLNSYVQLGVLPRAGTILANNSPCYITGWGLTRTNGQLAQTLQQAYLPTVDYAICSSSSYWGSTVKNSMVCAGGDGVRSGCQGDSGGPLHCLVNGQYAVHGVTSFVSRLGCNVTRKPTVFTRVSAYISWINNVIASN

[2] = molecular target: T3, human leukocyte elastase (HLE) (Homo sapiens, UniProt P08246); assay: Inactivation of human leukocyte elastase (HLE); assay type: biochemical
T3 construct: from tissue; host or cells: human leukocytes (from the name)
T3 sequence (P08246 30-267): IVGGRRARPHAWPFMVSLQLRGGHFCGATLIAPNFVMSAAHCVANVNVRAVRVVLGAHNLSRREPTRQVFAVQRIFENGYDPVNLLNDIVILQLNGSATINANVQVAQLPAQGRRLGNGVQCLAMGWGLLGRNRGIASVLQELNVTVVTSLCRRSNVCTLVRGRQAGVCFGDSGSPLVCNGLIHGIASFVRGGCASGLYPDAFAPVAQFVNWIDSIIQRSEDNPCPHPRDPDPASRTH
Protocol: Inactivation rates of serine proteases by substituted isocoumarins were measured by the incubation method. An aliquot of inhibitor (25 or 50 μl) in Me2 SO was added to a buffered enzyme solution (0.01-2.3 μM) to initiate the inactivation. Aliquots (50 μl) were withdrawn at various intervals and the residual enzymatic activity was measured. Me2 SO concentration in the reaction mixture was 8-12% (v/v). 0.1 Hepes, 0.01M CaCl2, pH 7.5 buffer was utilized for trypsin and coagulation enzymes. 0.1M Hepes, 0.5M NaCl, pH 7.5 was utilized for other serine proteases. […] Peptide thioesters or peptide nitroanilides with appropriate sequence were used as substrates for various serine proteases. All peptide thioester hydrolysis rates were measured with assay mixtures containing 4,4'-dithiodipyridine (ε324 =19800M^-1 cm^-1 ; Grasetti & Murray, Arch. Biochem. Biophys. 119, pp 41-49 (1967)). Peptide 4-nitroanilide nitroanilide hydrolysis was measured at 410 nm (ε410 =8800M^-1 cm^-1 ; Erlanger et al., Arch. Biochem. Biophys. 95, pp 271-278 (1961)). First order inactivation rate constant (kobs) were obtained from plots of ln (vt /vo) vs time, and the correlation coefficients were greater than 0.98.
^a Inactivation rates were measured at 0.1M Hepes, 0.5 NaCl, pH 7.5,
8-12% Me2 SO and 25° C. by incubation method.
^a Inhibition rates were measured in 0.1M Hepes, 0.05M NaCl, pH 7.5
buffer, 8-9% Me2 SO and at 25° C.
^a Inhibition constants were in 0.1M Hepes, 0.5M NaCl, pH 7.5 buffer,
8-9% Me2 SO and at 25° C.
^a Inhibition rates were measured in 0.1M Hepes, 0.5M NaCl, 2.5%
Me2 SO, pH 7,5 and at 25° C.
^a Inhibition was measured in 0.1M Hepes, 0.5M NaCl, pH 7.5 buffer,
5-10% Me2 SO and at 25° C. Suc--Val--Pro--Phe--NA (0.48 mM)
was used as the substrate for chymotrypsin and cat G.
^a Inhibition rates were measured in 0.1M Hepes, 0.5M NaCl, pH 7.5

chymotrypsin = chymotrypsin (Bos taurus, UniProt P00766); assay: Inactivation of chymotrypsin; assay type: biochemical, bovine
[3] = pH 7.5, Table XII, 2.5% Me2SO, 25° C, [I] 8.7-87 μM
[4] = pH 7.5, Table XII, 2.5% Me2SO, 25° C, [I] 34-56 μM
[5] = pH 7.5, Table XII, 2.5% Me2SO, 25° C, [I] 0.7-1.9 μM, read-out: kobs/[I]
[6] = pH 7.5, Table XII, 2.5% Me2SO, 25° C, [I] 3.4-70 μM, read-out: kobs/[I]
[7] = Table XVI, pH 7.5, 25° C, [I] 35-710 μM
[8] = Table XVI, pH 7.5, 25° C, [I] 0.04-2.0 mM
[9] = pH 7.5, Table XVI, second order, equimolar inhibitor and enzyme, read-out: kobs/[I]
[10] = pH 7.5, Table XVI, biphasic plot, read-out: kobs/[I] (biphasic, first value)
[11] = pH 7.5, Table XVI, biphasic plot, read-out: kobs/[I] (biphasic, second value)
[12] = Table XVI, pH 7.5, 25° C, [I] 1.7-58 μM, read-out: kobs/[I]
[13] = Table XVI, pH 7.5, 25° C, [I] 0.07-710 μM, read-out: kobs/[I]

Row | Structure (SMILES) | kinact/KI (cathepsin G; [7]) | kinact/KI [1, 8] | kinact/KI [2, 9] | kinact/KI (chymotrypsin; [12]) | kinact/KI (chymotrypsin; [9]) | other results
1 | CCCOc1oc(=O)c2cc(NC(=O)CCc3ccccc3)ccc2c1Cl [7-dihydrocinnamoylamino-4-chloro-3-propyloxyisocoumarin] | – | – | – | – | – | kinact/KI (cathepsin G; [3]): 20 M⁻¹ s⁻¹; kinact/KI [1, 4]: 220 M⁻¹ s⁻¹; kinact/KI [2, 5]: > 250000 M⁻¹ s⁻¹; kinact/KI (chymotrypsin; [6]): 12000 M⁻¹ s⁻¹
2 | CCCOc1oc(=O)c2cc(NC(=O)OCC)ccc2c1Cl [7-ethoxycarbonylamino-4-chloro-3-propyloxyisocoumarin] | – | – | – | – | – | kinact/KI (cathepsin G; [3]): 138 M⁻¹ s⁻¹; kinact/KI [1, 4]: 1600 M⁻¹ s⁻¹; kinact/KI [2, 5]: > 181000 M⁻¹ s⁻¹; kinact/KI (chymotrypsin; [6]): 5200 M⁻¹ s⁻¹
3 | CCCOc1oc(=O)c2cc(NC(=O)NCC)ccc2c1Cl [7-ethylcarbamoylamino-4-chloro-3-propyloxyisocoumarin] | – | – | – | – | – | kinact/KI (cathepsin G; [3]): 166 M⁻¹ s⁻¹; kinact/KI [1, 4]: 80 M⁻¹ s⁻¹; kinact/KI [2, 5]: > 276000 M⁻¹ s⁻¹; kinact/KI (chymotrypsin; [6]): 120 M⁻¹ s⁻¹
4 | CC(C)NC(=O)Nc1ccc2c(Cl)c(OCCBr)oc(=O)c2c1 [7-isopropylcarbamoylamino-4-chloro-3-(2-bromoethoxy)isocoumarin] | 77 M⁻¹ s⁻¹ | 4470 M⁻¹ s⁻¹ | 646000 M⁻¹ s⁻¹ | – | – | kinact/KI (chymotrypsin; [10]): 1340 M⁻¹ s⁻¹; kinact/KI (chymotrypsin; [11]): 380 M⁻¹ s⁻¹
5 | O=C(Nc1ccc2c(Cl)c(OCCBr)oc(=O)c2c1)Nc1cccc2ccccc12 [7-naphthylcarbamoylamino-4-chloro-3-(2-bromoethoxy)isocoumarin] | – | 76 M⁻¹ s⁻¹ | 390000 M⁻¹ s⁻¹ | 80 M⁻¹ s⁻¹ | – | percentage of inhibition (cathepsin G; Table XVI): 22%
6 | O=c1oc(OCCBr)c(Cl)c2ccc([N+](=O)[O-])cc12 [7-nitro-4-chloro-3-(2-bromoethoxy)isocoumarin] | 710 M⁻¹ s⁻¹ | 6330 M⁻¹ s⁻¹ | – | – | 98000 M⁻¹ s⁻¹ | kinact/KI [2, 13]: 65600 M⁻¹ s⁻¹
7 | CC(CBr)Oc1oc(=O)c2cc([N+](=O)[O-])ccc2c1Cl (stereo not drawn) [7-nitro-4-chloro-3-(2-bromoisopropoxy)isocoumarin] | 1660 M⁻¹ s⁻¹ | 1060 M⁻¹ s⁻¹ | – | – | 200000 M⁻¹ s⁻¹ | –

The next lines start with results.

Row | kinact/KI (cathepsin G; [7]) | kinact/KI [1, 8] | kinact/KI [2, 9] | kinact/KI (chymotrypsin; [12]) | kinact/KI (chymotrypsin; [9]) | Structure (SMILES) | other results
8 | 70 M⁻¹ s⁻¹ | 4950 M⁻¹ s⁻¹ | 480000 M⁻¹ s⁻¹ | – | 82000 M⁻¹ s⁻¹ | O=C(Cc1ccccc1)Nc1ccc2c(Cl)c(OCCBr)oc(=O)c2c1 [7-phenylacetylamino-4-chloro-3-(2-bromoethoxy)isocoumarin] | –
9 | – | 28 M⁻¹ s⁻¹ | – | – | 140000 M⁻¹ s⁻¹ | O=C(Cc1ccccc1)Nc1ccc2c(Cl)c(OCCCBr)oc(=O)c2c1 [7-phenylacetylamino-4-chloro-3-(3-bromopropoxy)isocoumarin] | percentage of inhibition (cathepsin G; Table XVI): 28%; kinact/KI [2, 13]: 32400 M⁻¹ s⁻¹
10 | – | 4 M⁻¹ s⁻¹ | – | 180 M⁻¹ s⁻¹ | – | O=C(Nc1ccccc1)Nc1ccc2c(Cl)c(OCCCBr)oc(=O)c2c1 [7-phenylcarbamoylamino-4-chloro-3-(3-bromopropoxy)isocoumarin] | percentage of inhibition (cathepsin G; Table XVI): 17%; kinact/KI [2, 10]: 13800 M⁻¹ s⁻¹; kinact/KI [2, 11]: 2890 M⁻¹ s⁻¹
11 | 200 M⁻¹ s⁻¹ | 1250 M⁻¹ s⁻¹ | > 480000 M⁻¹ s⁻¹ | – | 39000 M⁻¹ s⁻¹ | O=c1oc(OCCBr)c(Cl)c2ccc(NC(=S)Nc3ccccc3)cc12 [7-phenylthiocarbamoylamino-4-chloro-3-(2-bromoethoxy)isocoumarin] | –
12 | 240 M⁻¹ s⁻¹ | 3650 M⁻¹ s⁻¹ | – | 1070 M⁻¹ s⁻¹ | – | CC(C)(C)CC(=O)Nc1ccc2c(Cl)c(OCCBr)oc(=O)c2c1 [7-t-butylacetylamino-4-chloro-3-(2-bromoethoxy)isocoumarin] | –
13 | 56 M⁻¹ s⁻¹ | 6600 M⁻¹ s⁻¹ | – | 320 M⁻¹ s⁻¹ | – | CC(C)(C)NC(=O)Nc1ccc2c(Cl)c(OCCBr)oc(=O)c2c1 [7-t-butylcarbamoylamino-4-chloro-3-(2-bromoethoxy)isocoumarin] | –
